According to patent US9499472B2, “Aspartylamide inhibitors of excitatory amino acid transporters” (priority 2012, dated 2016):
Read-outs that look alike come from different tables or passages of the source.

How the values were obtained:
[1] = brain penetration and metabolism in live mice, LC/MS-MS of compound 6 in brain and plasma; type: in vivo, C57BL/6 mice; settings: for levels of compound 6 (hydrolyzed compound 1) per gram brain tissue: mouse, 10 mg/Kg tail vein injection, all time points 1-90 min, ester vs acid administered
Method: A series of separate experiments were performed with compounds 1 or 6 in groups of C57BL/6 mice (6-8 weeks old; Charles River, Wilmington, Mass.) as a function of dose and time, where concentrations of compound 6 in brain and plasma (nanogram of compound 6/g of brain tissue or blood) were measured by liquid chromatography/mass spectrometry (LC/MS-MS) detection by literature methods (Chernet et al., Life Sci. 78:340-346 (2005)). In general, doses of compounds 1 and 6 were prepared at 1, 5 or 10 mg/Kg in a homogenous solution composed of 3% dimethyl sulfoxide and 97% […] pH 7.4. Doses (0.25 mL volume) were administered by tail vein injection to groups (n≧3) of mice. Mice were sacrificed at 1, 3 10, 30, 60, 90 and 100 minutes post-injection. For some groups of mice, brains were removed, weighed, homogenized (polytron, in SDS and water) extracted with acetonitrile and then centrifuged where the acetonitrile supernatant was collected. For other groups of mice, blood was collected ([…]), weighed, and then the samples were centrifuged where the supernatant plasma was collected and extracted with acetonitrile with and without 0.1% formic acid. To validate the extraction methods, other control (non-dosed) mice brains and plasma samples were spiked with various amounts (5-25,000 ng) of compound 6 and were processed in a similar fashion and then analyzed as described below. Respective acetonitrile extracts were diluted with methanol and 20 μL portions were then subjected to analytical reverse phase (C-18 analytical column, isocratic acetonitrile/water solvent) high performance liquid chromatography (HPLC), where the HPLC fractions were quantified using a mass spectrometer set to selectively monitor the mass-to-charge ratio of singly protonated compound 6 (C17H16FN2O3, exact mass: 315.11). In other analyses, a standard curve of compound 6 was constructed (5-25,000 nanogram mass range) and analyzed similarly. Quantities (nanograms, ng) of compound 6 from the dosed treated mouse brain and plasma samples were determined by correlation to the quantitative control spike method of detection (above) and also confirmed by interpolations against the compound 6 standard curve. Data was imported into Microsoft Excel and plotted as nanogram (ng) of detected hydrolyzed compound 1 (that is, compound 6/gram (g) brain tissue or plasma versus time (minutes). The data from the mouse experiments are shown in FIGS. 4 and 5.
Shown in FIG. 4 are the results from 10 mg/Kg administration of the ester compound 1 (shown as black bars) or the acid compound 6 (shown as grey bars) relative to the amounts of hydrolyzed compound 1 (that is, compound 6) per gram brain tissue at time points 1, 3, 10, 60 and 90 minutes post-injection. […]

EAAT2 [2] = biological target: T1, EAAT2 (Rattus norvegicus, UniProt P31596); experiment: tracer PET brain imaging and quantitative EAAT2 detection in rat; type: in vivo, rat (Sprague-Dawley); settings: 5 mg/Kg dose 10 minutes before tracer 2, all CNS ROIs, all times post-injection
T1 construct: from tissue; host or cells: live male Sprague-Dawley rat brain and spinal cord (in vivo PET)
Method: As an example of the tracer compound of the invention, rodent (rat) quantitative in vivo PET imaging trials are presented employing the tracer compound 2 of Example VI. The in vivo PET imaging was performed in parallel with magnetic resonance (MR) and computed axial tomography (CAT, CT) imaging methods, in which the latter two imaging methods afforded anatomical tissue information for co-registration to the acquired tracer quantitative PET data. […] Two rodent imaging trials (A-B) were performed employing two age-matched male Sprague-Dawley subjects. The age of the subjects were nearly identical to those described in the most recent rat (Sprague-Dawley, amongst others) stereotaxic brain atlas (Paxinos et al., “[…],” Academic Press: Burlington, Mass. (2007))
providing high confidence levels for identification and definition of explicit brain cerebral fine tissue structures as regions of interest (ROIs) for quantitative analysis, and as a function of three-dimensional (3D) co-registration of cerebral soft tissue identification by MR scan analysis and landmark anatomical features from CAT data.
The PET data were acquired with a Siemens Inveon microPET scanner (ca. 1.5 mm spatial resolution). Rodent subject tail vein tracer 2 injection volumes (Table 1) used the tracer 2 dose formulation described in Example VI. […]

EAAT2 [3] = biological target: T2, EAAT2 (Homo sapiens, UniProt P43004); experiment: [3H]D-aspartate uptake by EAAT2 transiently expressed in C17.2 cells; type: cell-based
T2 construct: expressed in transfected cells; host or cells: C17.2 cells, transient transfection with FuGENE6
Method: The excitatory amino acid transporter 2 (EAAT2) was transiently expressed in C17.2 cells using an AAV-based vector pAM-CAG-EAAT3-WPRE as described in the literature (Esslinger). Cells between passages 10-20 were seeded at 5×10^4 cells/well in 12 well plates and grown in complete DMEM supplemented with 10% fetal bovine serum, 1 mM sodium pyruvate, 0.1 mM nonessential amino acids solution. At 24 hours after plating, cells were transfected using FuGENE6 Transfection Reagent (Roche, Indianapolis, Ind.) in a ratio of 4 μL of FuGENE6 to 3 μg of purified plasmid DNA in accordance with manufacturers instructions. The cells were used in the transport assays 24 hours following transfection as described by Esslinger. Briefly, transfected C17.2 cells were grown in DMEM containing 10% FCS in a humid atmosphere of 5% CO2. Near-confluent cells (plated at 5×10^4 cells/well) were rinsed with a physiological buffer (138 mM NaCl, 11 mM D-glucose, 5.3 mM KCl, 0.4 mM KH2PO4, 0.3 mM Na2HPO4, 1.1 mM CaCl2, 0.7 mM MgSO4, 10 mM HEPES, pH 7.4) and allowed to pre-incubate at 37° C. for 5 minutes.
Three types of binding experiments were performed: a) single concentrations of compounds 1 or 6 were added simultaneously to the cell assay with 1 μM ^3H-D-aspartate, b) six or more concentrations of compound 6 were added simultaneously to the cell assay with 1 μM ^3H-D-aspartate; and c) six or more concentrations of compound 6 were pre-incubated with cells for 25 minutes, after which 1 μM ^3H-D-aspartate was added to the cell to initiate the assay. […] The cells were dissolved in 0.4 N NaOH for 24 hours and analyzed for radioactivity by liquid scintillation counting and protein by the BCA (Pierce) method. For each type of uptake assay experiment, they were conducted with at least 2 cell-containing tissue culture wells, with duplicate samples from each well analyzed for radioactivity. […] Initial studies confirmed that uptake quantified in this manner was linear with time and protein levels and also that uptake in un-transfected C17.2 cells was indistinguishable from background. […]

[4] = test system: panel of central nervous system protein binding sites defined in FIG. 8; experiment: competitive radioligand binding panel of central nervous system protein binding sites (FIG. 8); design: key: No Activity: no greater than or equal to 50% inhibition of binding; settings: 1 micromole assay concentration, duplicate
Method: In separate in vitro competitive pharmacological assays performed in duplicate, compounds 1 and 6 at 1 micromole concentrations were evaluated against the panel of central nervous system protein binding sites that are defined in FIG. 8. As noted in FIG. 8, the assays utilized specific established radioligands for the respective competition binding assays, and respective assay ligand standards that afforded respective pharmacological inhibition binding curves of half maximal inhibitory concentration (IC50) values. […] In other words, the concentrations of compounds 1 and 6 that would be required to inhibit the FIG. 8 radioligand bindings at their respective protein sites would have to be greater than 1 micromole concentration.

T2 sequence (P43004 whole entry): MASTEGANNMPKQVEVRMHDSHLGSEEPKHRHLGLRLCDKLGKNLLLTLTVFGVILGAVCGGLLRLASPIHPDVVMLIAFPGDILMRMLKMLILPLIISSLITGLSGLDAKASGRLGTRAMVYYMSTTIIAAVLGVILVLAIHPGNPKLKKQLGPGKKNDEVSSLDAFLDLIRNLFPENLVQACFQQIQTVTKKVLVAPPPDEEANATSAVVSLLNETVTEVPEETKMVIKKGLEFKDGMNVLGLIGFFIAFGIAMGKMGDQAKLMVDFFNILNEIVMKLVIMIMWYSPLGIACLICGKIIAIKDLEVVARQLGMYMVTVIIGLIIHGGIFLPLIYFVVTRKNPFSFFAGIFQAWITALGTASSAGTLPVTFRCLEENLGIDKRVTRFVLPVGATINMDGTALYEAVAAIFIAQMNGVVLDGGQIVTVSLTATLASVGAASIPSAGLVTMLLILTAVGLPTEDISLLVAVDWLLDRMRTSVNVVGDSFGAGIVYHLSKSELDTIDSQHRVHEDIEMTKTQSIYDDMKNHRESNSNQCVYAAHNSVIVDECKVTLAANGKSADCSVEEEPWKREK
T1 sequence (P31596 whole entry): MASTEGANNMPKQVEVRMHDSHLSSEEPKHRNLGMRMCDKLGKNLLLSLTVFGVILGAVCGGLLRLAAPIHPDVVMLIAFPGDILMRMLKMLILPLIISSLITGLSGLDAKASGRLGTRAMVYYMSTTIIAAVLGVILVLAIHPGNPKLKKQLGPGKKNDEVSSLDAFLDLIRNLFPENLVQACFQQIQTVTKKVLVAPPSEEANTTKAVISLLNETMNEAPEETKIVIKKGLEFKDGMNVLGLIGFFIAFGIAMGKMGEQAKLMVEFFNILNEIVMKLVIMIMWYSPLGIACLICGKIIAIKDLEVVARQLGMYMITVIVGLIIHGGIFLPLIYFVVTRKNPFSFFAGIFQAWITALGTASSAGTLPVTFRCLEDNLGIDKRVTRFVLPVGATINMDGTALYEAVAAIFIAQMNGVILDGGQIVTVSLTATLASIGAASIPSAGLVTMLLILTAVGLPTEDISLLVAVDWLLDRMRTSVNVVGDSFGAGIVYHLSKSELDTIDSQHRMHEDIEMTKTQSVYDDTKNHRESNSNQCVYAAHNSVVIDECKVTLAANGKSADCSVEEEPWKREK

For `COC(=O)[C@@H](N)CC(=O)Nc1ccc2c(c1)Cc1cc(F)ccc1-2` [compound 1, (S)-Methyl 2-amino-4-(7-fluoro-9H-fluoren-2-ylamino)-4-oxobutanoate], the “amount of compound 6 detected in mouse brain, 5 mg/Kg versus 1 mg/Kg” value ([1]; mouse brain, 3, 10 and 100 minutes post-injection) was “dose amount dependence”, the “amount of compound 6 detected in plasma, 5 mg/Kg versus 1 mg/Kg” value ([1]; mouse plasma, 3 and 10 minutes post-injection) was “dose amount dependence” and the “levels of compound 6 (hydrolyzed compound 1) per gram brain tissue” value [1] was “higher levels”. The “reduction of tissue SUV signals of tracer 2 by pre-administration (challenge)” value (EAAT2 [2]) was 2-3 fold, the IC50 (EAAT2 [3]; IC50, EAAT2 interaction, first experimental in vitro conditions (single concentrations, simultaneous addition)) was over 10 µM and the “inhibition of 1 μM [3H]D-aspartate uptake by EAAT2” value (EAAT2 [3]; concentrations up to 10 μM, added simultaneously with 3H-D-aspartate, 5 min) was “little or no inhibition”. For the same compound, the “inhibition of binding of FIG. 8 radioligands at their protein binding sites” value [4] was “No Activity”.
In the case of `N[C@@H](CC(=O)Nc1ccc2c(c1)Cc1cc(F)ccc1-2)C(=O)O` [compound 6, (S)-2-Amino-4-(7-fluoro-9H-fluoren-2-ylamino)-4-oxo-butanoic acid], the “levels of compound 6 (hydrolyzed compound 1) per gram brain tissue” value [1] is reported as “lower levels”, the “inhibition of 1 μM [3H]D-aspartate uptake by EAAT2” value (EAAT2 [3]) is reported as “almost completely inhibited all uptake” and the “inhibition of binding of FIG. 8 radioligands at their protein binding sites” value [4] is reported as “No Activity”.
